Test results published in patent US20230321117A1, “USE OF […] TREATING AN EPILEPSY DISORDER” (MARINUS PHARMACEUTICALS, INC., priority 2020, published 2023).

Columns and labels:
Format in all cases: in vivo, human
[1] = system: partial-onset (focal) seizures; test: Phase 2 study in adults with uncontrolled partial-onset (focal) seizures
Procedure: A Phase 2 study was conducted. It enrolled 147 participants 18-69 years of age with a diagnosis of epilepsy with uncontrolled partial-onset (focal) seizures with or without secondary generalization despite being treated with up to 3 AEDs. Participants were randomized to adjunctive placebo (N=49) or GNX liquid suspension (N=98) titrated to a target dose of at 500 mg TID (1500 mg/day) in addition to their baseline AEDs, after which they entered an eight-week prospective baseline period followed by a 10-week double-blind phase. The primary endpoint was the reduction in weekly frequency of focal motor, focal impaired awareness and focal to bilateral tonic-clonic seizures from baseline to the double-blind phase. The prespecified primary analysis was the reduction in mean weekly seizure frequency, with log-transformed rates analyzed using analysis of covariance (ANCOVA). The protocol defined the population for analysis (“Primary Population”) as participants with 10 or fewer seizures/week during the baseline period.

[2] = system: seizure occurrence in presurgical epilepsy participants; test: Double-blind placebo-controlled study during AED discontinuation with inpatient continuous EEG monitoring; conditions: 500 mg TID or 625 mg TID, up to 8 days; log-rank p=0.08
Procedure: A double-blind, placebo-controlled study that enrolled 52 participants 18-65 years of age undergoing AED discontinuation during inpatient continuous EEG monitoring as part of an evaluation for surgical treatment of epilepsy was performed. Participants were randomized and administered: (i) ganaxolone 500 mg TID, (ii) 625 mg TID, or (iii) matching placebo and treated for up to 8 days. The primary endpoint was difference in the duration of treatment before meeting withdrawal criteria based on seizure occurrence.

[3] = system: partial-onset (focal) seizures; test: Phase 3 trial in adults with focal seizures
Procedure: Based on the results of the phase 2 study, a double-blind, placebo-controlled phase 3 trial in adults with focal seizures was conducted. The study enrolled two cohorts: Cohort 1 was an initial assessment of safety and tolerability of GNX 1200 or 1800 mg/day compared to placebo. Cohort 2, on which the primary efficacy analysis was based, enrolled 359 participants with a diagnosis of epilepsy with uncontrolled partial-onset (focal) seizures with or without secondary generalization who had failed at least two prior AEDs and had been on a stable regimen of one to three AEDs for at least one month. Following an eight-week prospective baseline period during which there were at least three seizures/28 days, participants were randomized to GNX 1800 mg/d (N=179) or placebo (N=180). The primary endpoint was the percent change in 28-day frequency of focal motor, focal impaired awareness and focal to bilateral tonic-clonic seizures from baseline to the double-blind phase. The primary efficacy analysis was a rank ANCOVA based on the modified intent-to-treat (mITT) population, defined as randomized participants who had taken at least one dose of study drug and provided post-baseline seizure data.

[4] = Plasma ganaxolone concentration in phase 3 CDD trial (PK/PD analysis)
Description: (§1) Global, randomized, double-blind, placebo-controlled phase 3 clinical trial to assess the safety and efficacy of adjunctive ganaxolone for the treatment of seizures associated with CDD. Patients aged 2 to 21 years with a pathogenic or likely pathogenic mutation of the CDKL5 gene, neurodevelopmental impairment, and seizures refractory to treatment with at least 2 prior antiseizure medications who experienced at least 16 seizures per 28 days during the 2 months prior to screening were eligible to enroll. Study consisted of a 6-week baseline followed by a 17-week double-blind phase (ganaxolone or placebo, 1:1). The dose of ganaxolone 50 mg/mL suspension was titrated over 4 weeks to 63 mg/kg/day (21 mg/kg TID), not to exceed 1800 mg/d (600 mg TID), or to the maximum tolerated dose. Blood draws for PK analysis were scheduled to occur at visit 3 (week 5), visit 4 (week 9), and visit 5 (week 17).
Mean ganaxolone concentration was calculated for each subject using available results from up to three laboratory determinations during the double-blind phase. Linear regression was conducted using arithmetic- and natural logarithm-transformed percent reduction in major motor seizures (loge [percent reduction+100]) as dependent variable and natural logarithm-transformed mean ganaxolone concentration as the single explanatory variable. Regression diagnostics included examination of residual and normal probability plots and determination of outliers and influential values. Cases with standardized residuals >2 or <−2 were excluded from the model and the regression was repeated.
The resulting sample was utilized in determination of a Pearson correlation coefficient (using log-transformed values). Additionally, percent seizure reduction was compared in three tertiles representing low (N=13), medium (N=13) and high (N=12) mean per subject ganaxolone concentrations using a Kruskal-Wallis test.

[5] = system: major motor seizures in patients with CDKL5 deficiency disorder (CDD); test: Percent change in major motor seizure frequency vs plasma ganaxolone level, phase 3 CDD trial; conditions: back-transformation of log values; CDD participants
Description: as §1
Mean ganaxolone concentration was calculated for each subject using available results from up to three laboratory determinations during the double-blind phase. Linear regression was conducted using arithmetic- and natural logarithm-transformed percent reduction in major motor seizures (loge [percent reduction+100]) as dependent variable and natural logarithm-transformed mean ganaxolone concentration as the single explanatory variable. […]

For CC(=O)[C@H]1CC[C@H]2[C@@H]3CC[C@H]4C[C@](C)(O)CC[C@]4(C)[C@H]3CC[C@]12C [ganaxolone], the “median percent reduction in seizure frequency” value ([1]; ITT population, 1500 mg/day TID, p=0.014 vs placebo) was 25.9%, the “net reduction in weekly seizure frequency compared to placebo” value ([1]; ITT population, p=0.049) was 11.4% and the “Median % reduction GNX” value ([1]; Phase 2, 1500 mg/d, TID, N 98) was 25.9%. For the same compound, the “net reduction in weekly seizure frequency compared to placebo” value ([1]; Primary Population (10 or fewer seizures/week at baseline), p=0.042) was 11.8%, the “weekly seizure frequency during the double-blind phase” value ([1]; Primary Population, 500 mg TID liquid suspension, adjunctive, baseline 3.13) was 2.70 and the “duration of treatment before meeting withdrawal criteria based on seizure occurrence, relative to placebo” value [2] was “longer duration of treatment prior to study withdrawal”. The “Median % reduction GNX” value ([3]; Phase 3, 1800 mg/d, BID, N 179) was 21.3%, the “percent reduction in seizure frequency from baseline period to double-blind phase” value ([3]; mITT, Cohort 2, 1800 mg/d, 28-day frequency, p=0.179 vs placebo) was 21.3% and the clinical endpoint outcome ([3]; oral 1800 mg daily (900 mg twice a day), adults with focal seizures) was “clinical endpoint was not achieved”. For the same compound, the “Mean GNX level” value ([4]; High GNX level tertile (n = 12)) was 172.6 ng/mL, the “Mean GNX level” value ([4]; Low GNX level tertile (n = 13)) was 40.2 ng/mL and the “Mean GNX level” value ([4]; Medium GNX level tertile (n = 13)) was 72.3 ng/mL. The “seizure reduction predicted at plasma concentration of approximately 100 ng/mL” value [5] was “approximately 40%”.
